Measurements published in patent US7612064B2, “Sulfopyrroles” (Takeda Pharmaceutical Company Limited, priority 2003, dated 2009).
pIC50: −log10 of the molar value.

Tests used:
HeLa [1] = experiment: PI staining for cell cycle distribution; format: cell-based, human; design: key: 0: no effect; 1: weak effect; 2: strong effect; settings: HeLa 10μM, 48 h
Experimental: (§1) 1-2*10^5 cells are seeded into 24 well tissue culture plates and incubated for 24 h prior to compound addition. […] Adherent cells are harvested by trypsinization. The cell suspensions are fixed by adding 2 parts ice cold ethanol 100% while vortexing. Then the samples are stored for>2 h at −20° C. Subsequently the cells are washed with PBS once and resuspended in 250 μl PBS containing 50 μg/ml PI (Calbiochem # 537059), then the samples are incubated at 37° C. for 30 min and subsequently analyzed on a FACSCalibur™ monitoring linear PI fluorescence activity on FL2. The readout allows the detection of a possible direct or indirect influence of the tested compounds on the cell cycle. The following events can occur: a) Generation of a subG1 peak indicative for DNA fragmentation, b) increase of the cell population arrested in G2M phase. Both events are scored by 1 for weak and 2 for strong occurrence. 0 indicates no occurrence at all.

Jurkat [2] = experiment: PI staining for cell cycle distribution; format: cell-based, human; design: key: 0: no effect; 1: weak effect; 2: strong effect; settings: Jurkat 3μM, 48 h
Experimental: as §1

MRC5 = experiment: MTS proliferation assay; format: cell-based; settings: MRC5, 72 h
Outline: (§2)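 Compounds at final 10/3/1/0.3 μM (added in complete medium, ≤5% DMSO); 72 h, culture conditions; + MTS, 3 h; A492.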

Jily = experiment: MTS proliferation assay; format: cell-based; settings: 72 h
Outline: as §2

[3] = Hoechst 33342 nuclear staining; format: cell-based; settings: for Hoechst 33342 nuclear staining score, H460: H460 cells; for Hoechst 33342 nuclear staining score, HeLa: HeLa cells; for Hoechst 33342 nuclear staining score, Jily: Jily cells; for Hoechst 33342 nuclear staining score, Jurkat: Jurkat cells; for Hoechst 33342 nuclear staining score, MRC5: MRC5 cells;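 for all read-outs here: apoptotic nuclei scored 0 none 1 weak under 50% of cells 2 strong over 50% of cells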
Outline: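 Cells were plated in 96 well tissue culture plates in 80 μl complete medium, with 3-5*10^3 cells per well for adherent lines and 8-10*10^3 for suspension lines. Adherent cells spread for 24 h before treatment, while suspension cells were treated right after seeding. Compounds were added in 20 μl complete medium containing max 5% DMSO.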

HeLa [4] = experiment: MTS proliferation assay; format: cell-based, human; settings: 72 h
Outline: as §2

Jurkat [5] = experiment: MTS proliferation assay; format: cell-based, human; settings: 72 h
Outline: as §2

[6] = conc 0.1 (final concentrations in μM), 24 h or 48 h incubation
[7] = conc 0.3 (final concentrations in μM), 24 h or 48 h incubation
[8] = conc 1 (final concentrations in μM), 24 h or 48 h incubation
[9] = conc 3 (final concentrations in μM), 24 h or 48 h incubation

COc1cc(-c2cc(CNc3ccc(-n4ccnc4)cc3)cn2S(=O)(=O)c2ccc(C)cc2)cc(OC)c1OC [Example 55]
PI staining for cell cycle distribution, G2M (HeLa [1]): 2
PI staining for cell cycle distribution, subG1 (HeLa [1]): 0
PI staining for cell cycle distribution, G2M (Jurkat [2]): 1
PI staining for cell cycle distribution, subG1 (Jurkat [2]): 0
pIC50 (MRC5): > 6.00
pIC50 (Jily): < 6.00
Hoechst 33342 nuclear staining score, H460 [3, 6]: 0
Hoechst 33342 nuclear staining score, H460 [3, 7]: 0
Hoechst 33342 nuclear staining score, H460 [3, 8]: 0
Hoechst 33342 nuclear staining score, H460 [3, 9]: 2 (strong activity comprising more than 50% of the cells)
Hoechst 33342 nuclear staining score, HeLa [3, 6]: 0
Hoechst 33342 nuclear staining score, HeLa [3, 7]: 0
Hoechst 33342 nuclear staining score, HeLa [3, 8]: 1 (weak activity comprising less than 50% of the cells)
Hoechst 33342 nuclear staining score, HeLa [3, 9]: 2 (strong activity comprising more than 50% of the cells)
Hoechst 33342 nuclear staining score, Jily [3, 6]: 0
Hoechst 33342 nuclear staining score, Jily [3, 7]: 0
Hoechst 33342 nuclear staining score, Jily [3, 8]: 2 (strong activity comprising more than 50% of the cells)
Hoechst 33342 nuclear staining score, Jily [3, 9]: 2 (strong activity comprising more than 50% of the cells)
Hoechst 33342 nuclear staining score, Jurkat [3, 6]: 0
Hoechst 33342 nuclear staining score, Jurkat [3, 7]: 0
Hoechst 33342 nuclear staining score, Jurkat [3, 8]: 2 (strong activity comprising more than 50% of the cells)
Hoechst 33342 nuclear staining score, Jurkat [3, 9]: 2 (strong activity comprising more than 50% of the cells)
Hoechst 33342 nuclear staining score, MRC5 [3, 6]: 0
Hoechst 33342 nuclear staining score, MRC5 [3, 7]: 0
Hoechst 33342 nuclear staining score, MRC5 [3, 8]: 0
Hoechst 33342 nuclear staining score, MRC5 [3, 9]: 1 (weak activity comprising less than 50% of the cells)
Hoechst 33342 nuclear staining score, PBLs [3, 6]: 0
Hoechst 33342 nuclear staining score, PBLs [3, 7]: 0
Hoechst 33342 nuclear staining score, PBLs [3, 8]: 0
Hoechst 33342 nuclear staining score, PBLs [3, 9]: 0
pIC50 (HeLa [4]): < 6.00
pIC50 (Jurkat [5]): > 6.00

Cc1ccc(S(=O)(=O)n2cc(-c3cncc(C(N)=O)c3)cc2-c2cccs2)cc1 [Example 53]
PI staining for cell cycle distribution, G2M (HeLa [1]): 2
PI staining for cell cycle distribution, subG1 (HeLa [1]): 0
PI staining for cell cycle distribution, G2M (Jurkat [2]): 1
PI staining for cell cycle distribution, subG1 (Jurkat [2]): 0
pIC50 (MRC5): < 6.00
Hoechst 33342 nuclear staining score, H460 [3, 6]: 0
Hoechst 33342 nuclear staining score, H460 [3, 7]: 0
Hoechst 33342 nuclear staining score, H460 [3, 8]: 0
Hoechst 33342 nuclear staining score, H460 [3, 9]: 0
Hoechst 33342 nuclear staining score, HeLa [3, 6]: 0
Hoechst 33342 nuclear staining score, HeLa [3, 7]: 0
Hoechst 33342 nuclear staining score, HeLa [3, 8]: 0
Hoechst 33342 nuclear staining score, HeLa [3, 9]: 0
Hoechst 33342 nuclear staining score, Jily [3, 6]: 0
Hoechst 33342 nuclear staining score, Jily [3, 7]: 0
Hoechst 33342 nuclear staining score, Jily [3, 8]: 0
Hoechst 33342 nuclear staining score, Jily [3, 9]: 0
Hoechst 33342 nuclear staining score, Jurkat [3, 6]: 0
Hoechst 33342 nuclear staining score, Jurkat [3, 7]: 0
Hoechst 33342 nuclear staining score, Jurkat [3, 8]: 0
Hoechst 33342 nuclear staining score, Jurkat [3, 9]: 0
Hoechst 33342 nuclear staining score, MRC5 [3, 6]: 0
Hoechst 33342 nuclear staining score, MRC5 [3, 7]: 0
Hoechst 33342 nuclear staining score, MRC5 [3, 8]: 0
Hoechst 33342 nuclear staining score, MRC5 [3, 9]: 0
Hoechst 33342 nuclear staining score, PBLs [3, 6]: 0
Hoechst 33342 nuclear staining score, PBLs [3, 7]: 0
Hoechst 33342 nuclear staining score, PBLs [3, 8]: 0
Hoechst 33342 nuclear staining score, PBLs [3, 9]: 0
pIC50 (HeLa [4]): < 6.00
pIC50 (Jurkat [5]): > 6.00

p-(1-[p-Toluenesulfonyl]-2-[3,4,5-trimethoxyphenyl]-4-pyrrolyl)-benzamide [Example 6]
PI staining for cell cycle distribution, G2M (HeLa [1]): 2
PI staining for cell cycle distribution, subG1 (HeLa [1]): 0
PI staining for cell cycle distribution, G2M (Jurkat [2]): 1
PI staining for cell cycle distribution, subG1 (Jurkat [2]): 0
pIC50 (MRC5): > 6.00
pIC50 (HeLa [4]): > 6.00
pIC50 (Jurkat [5]): > 6.70

COc1cc(-c2cc(-c3cncc(CNC(C)=O)c3)cn2S(=O)(=O)c2ccc(C)cc2)cc(OC)c1OC [Example 60]
pIC50 (MRC5): > 6.00
pIC50 (Jily): > 6.00
Hoechst 33342 nuclear staining score, H460 ([3]; conc 0.1): 0
Hoechst 33342 nuclear staining score, H460 ([3]; conc 0.3): 0
Hoechst 33342 nuclear staining score, H460 ([3]; conc 1): 2 (strong activity comprising more than 50% of the cells)
Hoechst 33342 nuclear staining score, H460 ([3]; conc 3): 2 (strong activity comprising more than 50% of the cells)
Hoechst 33342 nuclear staining score, HeLa ([3]; conc 0.1): 0
Hoechst 33342 nuclear staining score, HeLa ([3]; conc 0.3): 0
Hoechst 33342 nuclear staining score, HeLa ([3]; conc 1): 1 (weak activity comprising less than 50% of the cells)
Hoechst 33342 nuclear staining score, HeLa ([3]; conc 3): 2 (strong activity comprising more than 50% of the cells)
Hoechst 33342 nuclear staining score, Jily ([3]; conc 0.1): 0
Hoechst 33342 nuclear staining score, Jily ([3]; conc 0.3): 0
Hoechst 33342 nuclear staining score, Jily ([3]; conc 1): 2 (strong activity comprising more than 50% of the cells)
Hoechst 33342 nuclear staining score, Jily ([3]; conc 3): 2 (strong activity comprising more than 50% of the cells)
Hoechst 33342 nuclear staining score, Jurkat ([3]; conc 0.1): 0
Hoechst 33342 nuclear staining score, Jurkat ([3]; conc 0.3): 2 (strong activity comprising more than 50% of the cells)
Hoechst 33342 nuclear staining score, Jurkat ([3]; conc 1): 2 (strong activity comprising more than 50% of the cells)
Hoechst 33342 nuclear staining score, Jurkat ([3]; conc 3): 2 (strong activity comprising more than 50% of the cells)
Hoechst 33342 nuclear staining score, MRC5 ([3]; conc 0.1): 0
Hoechst 33342 nuclear staining score, MRC5 ([3]; conc 0.3): 0
Hoechst 33342 nuclear staining score, MRC5 ([3]; conc 1): 0
Hoechst 33342 nuclear staining score, MRC5 ([3]; conc 3): 2 (strong activity comprising more than 50% of the cells)
Hoechst 33342 nuclear staining score, PBLs ([3]; conc 0.1): 0
Hoechst 33342 nuclear staining score, PBLs ([3]; conc 0.3): 0
Hoechst 33342 nuclear staining score, PBLs ([3]; conc 1): 0
Hoechst 33342 nuclear staining score, PBLs ([3]; conc 3): 0
pIC50 (HeLa [4]): > 6.00
pIC50 (Jurkat [5]): > 6.00
